US20250134146A1, “FLAVANONE COMPOUNDS AND THEIR USE AS FLAVOR MODIFIERS” (Firmenich Incorporated, priority 2022, published 2025)

How the values were obtained:
T1R sweet taste receptor = biological target: T1, T1R sweet taste receptor (Homo sapiens, UniProt Q7RTX0+Q8TE23); assay: in vitro cell-based assay, cells overexpressing the T1R sweet taste receptor; sweet dose-response curves; conditions: cells that overexpress the T1R sweet taste receptor; calculated from sweet dose-response curves
T1 construct: expressed in transfected cells
T1 sequence (Q8TE23 20-839): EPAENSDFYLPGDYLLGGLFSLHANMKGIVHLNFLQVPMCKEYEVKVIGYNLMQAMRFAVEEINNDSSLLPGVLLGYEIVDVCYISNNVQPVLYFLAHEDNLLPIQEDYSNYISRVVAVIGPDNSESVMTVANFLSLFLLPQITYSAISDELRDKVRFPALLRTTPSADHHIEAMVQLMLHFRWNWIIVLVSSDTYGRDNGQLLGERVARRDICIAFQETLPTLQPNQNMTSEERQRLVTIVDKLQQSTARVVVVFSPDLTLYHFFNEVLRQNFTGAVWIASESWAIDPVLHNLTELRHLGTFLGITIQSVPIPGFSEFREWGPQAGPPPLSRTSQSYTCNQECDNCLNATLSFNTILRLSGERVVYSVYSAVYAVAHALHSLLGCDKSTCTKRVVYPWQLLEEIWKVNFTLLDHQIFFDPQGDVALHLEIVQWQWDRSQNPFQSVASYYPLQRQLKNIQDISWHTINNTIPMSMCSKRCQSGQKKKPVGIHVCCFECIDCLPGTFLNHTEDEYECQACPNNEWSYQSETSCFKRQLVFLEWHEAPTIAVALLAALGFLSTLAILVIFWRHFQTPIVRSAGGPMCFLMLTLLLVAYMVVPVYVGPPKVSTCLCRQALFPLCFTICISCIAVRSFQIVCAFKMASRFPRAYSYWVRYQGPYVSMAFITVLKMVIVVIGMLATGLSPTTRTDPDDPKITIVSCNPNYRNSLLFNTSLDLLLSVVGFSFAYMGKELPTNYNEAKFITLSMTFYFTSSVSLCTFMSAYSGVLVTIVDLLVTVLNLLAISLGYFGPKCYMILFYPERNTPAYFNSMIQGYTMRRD
T1 sequence (Q7RTX0 21-852): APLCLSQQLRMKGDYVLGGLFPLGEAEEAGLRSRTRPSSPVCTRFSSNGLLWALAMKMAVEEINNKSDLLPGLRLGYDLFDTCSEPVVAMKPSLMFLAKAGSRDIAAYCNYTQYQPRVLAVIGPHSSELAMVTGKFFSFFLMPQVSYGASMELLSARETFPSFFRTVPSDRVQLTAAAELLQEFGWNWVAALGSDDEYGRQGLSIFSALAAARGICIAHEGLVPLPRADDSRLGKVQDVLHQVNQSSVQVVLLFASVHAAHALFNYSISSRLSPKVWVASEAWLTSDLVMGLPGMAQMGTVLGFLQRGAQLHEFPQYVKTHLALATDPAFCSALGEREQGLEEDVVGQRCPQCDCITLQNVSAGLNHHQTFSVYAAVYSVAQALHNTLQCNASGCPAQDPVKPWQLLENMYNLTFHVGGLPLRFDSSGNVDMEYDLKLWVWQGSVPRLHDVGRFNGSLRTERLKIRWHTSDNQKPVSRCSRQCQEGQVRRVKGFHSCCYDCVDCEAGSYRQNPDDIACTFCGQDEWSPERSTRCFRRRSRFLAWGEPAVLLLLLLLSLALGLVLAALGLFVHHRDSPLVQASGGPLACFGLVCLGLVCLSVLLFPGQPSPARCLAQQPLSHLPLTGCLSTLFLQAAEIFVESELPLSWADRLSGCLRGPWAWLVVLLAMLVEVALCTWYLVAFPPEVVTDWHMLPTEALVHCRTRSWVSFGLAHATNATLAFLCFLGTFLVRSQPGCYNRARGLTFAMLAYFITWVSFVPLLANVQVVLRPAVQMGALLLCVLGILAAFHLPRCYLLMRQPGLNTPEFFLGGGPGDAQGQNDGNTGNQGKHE
Experimental: Each of Compounds 101-107, 113, and 117-129 was either synthesized or separated from the corresponding synthetic racemate. Thereafter, the compounds were tested in an in vitro cell-based assay having cells that overexpress the T1R sweet taste receptor. The sweet dose-response curves were recorded and the EC50 was calculated. Table 4 sets forth the calculated EC50 values for the compounds tested.

Human Panelists [1] = assay: sensory evaluation of sweetness of 6% sucrose solution containing Compound at its Threshold Concentration, relative to pure sucrose solutions; type: in vivo; conditions: 6% sucrose solution plus Compound at its Threshold Concentration, compared with pure sucrose solutions
From the text: (§1) Test samples containing selected experimental compounds were sensory evaluated for sweetness intensity relative to 1.5% sucrose solution by a trained sensory panel of at least 8 panelists. The highest concentration of a Compound which panelists determined to be less sweet than 1.5% sucrose solution was set as its Threshold Concentration (TC). Next, panelists evaluated the sweetness of 6% sucrose solution containing each Compound at its Threshold Concentration (TC), relative to pure sucrose solutions at varying concentrations. Table 5 summarizes the sensory evaluation data for compounds 101,102, 105, 107 and 122-125, 127, 128.

Human Panelists [2] = assay: sensory evaluation of sweetness intensity relative to 1.5% sucrose solution (Threshold Concentration); type: in vivo; conditions: highest concentration judged less sweet than 1.5% sucrose solution, trained sensory panel of at least 8 panelists
From the text: as §1

| Structure (SMILES) | EC50 (T1R sweet taste receptor) | Sucrose concentration of equal sweetness to (6% sucrose + Compound at its TC) (Human Panelists [1]) | Threshold Concentration (TC) - less sweet than 1.5% sucrose (Human Panelists [2]) | Threshold Concentration (TC) - less sweet than 1.5% sucrose (Human Panelists [2]; value in brackets) |
| --- | --- | --- | --- | --- |
| CO[C@@H]1C(=O)c2c(O)cc(O)cc2O[C@H]1c1cc(O)c(O)c(O)c1 (relative stereo) [Compound 121, (trans)-2-(3,4,5-trihydroxyphenyl)-5,7-dihydroxy-3-methoxychroman-4-one] | 180 µM |  |  |  |
| CCO[C@@H]1C(=O)c2c(O)cc(O)cc2O[C@H]1c1ccc(O)cc1 (relative stereo) [Compound 118, (trans)-5,7-dihydroxy-2-(4-hydroxyphenyl)-3-ethoxychroman-4-one] | 30 µM |  |  |  |
| CO[C@@H]1C(=O)c2c(O)cc(O)cc2O[C@H]1c1ccc(O)cc1 (relative stereo) [Compound 125, (−)-(trans)-5,7-dihydroxy-2-(4-hydroxyphenyl)-3-methoxychroman-4-one] | > 100 µM |  |  |  |
| COC1C(=O)c2c(O)cccc2OC1c1ccc(O)cc1 (stereo not drawn) [Compound 104, (trans)-5-hydroxy-2-(4-hydroxyphenyl)-3-methoxychroman-4-one] | 4 µM |  |  |  |
| COc1ccc([C@@H]2Oc3cc(O)ccc3C(=O)[C@H]2OC)cc1O (relative stereo) [Compound 129, (−)-(trans)-7-hydroxy-2-(3-hydroxy-4-methoxyphenyl)-3-methoxychroman-4-one] | > 200 µM |  |  |  |
| COc1ccc([C@@H]2Oc3cccc(O)c3C(=O)[C@H]2OC)cc1O (relative stereo) [Compound 127, (−)-(trans)-5-hydroxy-2-(3-hydroxy-4-methoxyphenyl)-3-methoxychroman-4-one] | 1 µM |  |  |  |
| COc1ccc([C@H]2Oc3cc(O)cc(O)c3C(=O)[C@@H]2OC)cc1O (single isomer, unassigned) [Compound 122, (+)-(trans)-5,7-dihydroxy-2-(3-hydroxy-4-methoxyphenyl)-3-methoxychroman-4-one] | 0.7 µM | ≥8.0%, | 2.5 ppm | 7.5 µM |
| COc1ccc([C@@H]2Oc3cc(O)ccc3C(=O)[C@H]2OC)cc1O (racemic) [Compound 107, (trans)-7-hydroxy-2-(3-hydroxy-4-methoxyphenyl)-3-methoxychroman-4-one] | 7 µM | ≥7.5% | 11 ppm | 35 µM |
| COc1ccc([C@H]2Oc3cc(O)ccc3C(=O)[C@@H]2OC)cc1O (stereo in doubt) [Compound 128, (+)-(trans)-7-hydroxy-2-(3-hydroxy-4-methoxyphenyl)-3-methoxychroman-4-one] | 9 µM | ≥8.0% | 5 ppm | 16 µM |
| CCO[C@@H]1C(=O)c2c(O)cccc2O[C@H]1c1ccc(OC)c(O)c1 (relative stereo) [Compound 119, (trans)-5-hydroxy-2-(3-hydroxy-4-methoxyphenyl)-3-ethoxychroman-4-one] | 0.4 µM |  |  |  |
| CCOC1C(=O)c2ccc(O)cc2OC1c1ccc(OC)c(O)c1 (stereo not drawn) [Compound 120, (tans)-7-hydroxy-2-(3-hydroxy-4-methoxyphenyl)-3-ethoxychroman-4-one] | 8 µM |  |  |  |
| CO[C@@H]1C(=O)c2c(O)cc(O)cc2O[C@H]1c1ccc(O)cc1 (racemic) [Compound 101, (trans)-5,7-dihydroxy-2-(4-hydroxyphenyl)-3-methoxychroman-4-one] |  | ≥7.5% | 11 ppm | 36 µM |

The remaining molecules from weak to strong by EC50 (T1R sweet taste receptor), led by results:

| EC50 (T1R sweet taste receptor) | Structure (SMILES) | Sucrose concentration of equal sweetness to (6% sucrose + Compound at its TC) (Human Panelists [1]) | Threshold Concentration (TC) - less sweet than 1.5% sucrose (Human Panelists [2]) | Threshold Concentration (TC) - less sweet than 1.5% sucrose (Human Panelists [2]; value in brackets) |
| --- | --- | --- | --- | --- |
| 92 µM | CO[C@@H]1C(=O)c2ccc(O)cc2O[C@H]1c1ccc(O)cc1 (relative stereo) [Compound 106, (trans)-7-hydroxy-2-(4-hydroxyphenyl)-3-methoxychroman-4-one] |  |  |  |
| 25 µM | COc1cc(O)c2c(c1)O[C@@H](c1ccc(OC)c(O)c1)[C@H](OC)C2=O (relative stereo) [Compound 113, (trans)-5-hydroxy-2-(3-hydroxy-4-methoxyphenyl)-3,7-dimethoxychroman-4-one] |  |  |  |
| 10 µM | CO[C@H]1C(=O)c2c(O)cc(O)cc2O[C@@H]1c1ccc(O)cc1 (stereo in doubt) [Compound 124, (+)-(trans)-5,7-dihydroxy-2-(4-hydroxyphenyl)-3-methoxychroman-4-one] | ≥8.0% | 5 ppm | 16 µM |
| 1 µM | CCO[C@@H]1C(=O)c2c(O)cc(O)cc2O[C@H]1c1ccc(OC)c(O)c1 (relative stereo) [Compound 117, (trans)-5,7-dihydroxy-2-(3-hydroxy-4-methoxyphenyl)-3-ethoxychroman-4-one] |  |  |  |
| 1 µM | COc1ccc([C@@H]2Oc3cc(O)cc(O)c3C(=O)[C@H]2OC)cc1O (racemic) [Compound 102, (trans)-5,7-dihydroxy-2-(3-hydroxy-4-methoxyphenyl)-3-methoxychroman-4-one] | ≥7.5% | 4 ppm | 12 µM |
| 0.1 µM | COc1ccc([C@@H]2Oc3cccc(O)c3C(=O)[C@H]2OC)cc1O (racemic) [Compound 105, (trans)-5-hydroxy-2-(3-hydroxy-4-methoxyphenyl)-3-methoxychroman-4-one] | ≥7.5% | 1.5 ppm | 4.8 µM |
| 0.03 µM | COc1ccc([C@H]2Oc3cccc(O)c3C(=O)[C@@H]2OC)cc1O (stereo in doubt) [Compound 126, (+)-(trans)-5-hydroxy-2-(3-hydroxy-4-methoxyphenyl)-3-methoxychroman-4-one] |  |  |  |
